Results: PMC7218274 (Antiviral Chemistry & Chemotherapy, 2020)

Tests used:
HAdV-19 [1] = test: MTT-based antiviral assay, HAdV-19-infected A549 cells; assay type: cell-based, Human adenovirus type 19; details: for EC50: Human mastadenovirus D, 120 h, HAdV-19, five days, MTT, mean ± 1 SD, read-out: EC50 (50% antiviral effective concentration)
Method: (§1) MT-2 cells and A549 cells were mixed with HAdV-19, 2× 10^5 cells/mL with 10^4 TCID50/mL and 1× 10^5 cells/mL with 3 × 10^3 TCID50/mL, respectively, in plate wells in the presence or absence of various concentrations of the compounds (MOI: 0.035 for MT-2 cells and 0.021 for A549). The plates were incubated for five days. At the end of the incubation period, CPE was determined using the MTT assay, as described previously.[11],[12] Thus, 25 µl of the MTT solution (7.5 mg/ml) in phosphate-buffered saline (Wako, Japan) was added to each well of the plate. Then, the plate was incubated at 37°C for 2 h. After incubation, 150 µl of medium was removed with care in order not to draw cells. To solubilize the formazan crystals and neutralize the viral infectivity, 100 μl of acidified isopropanol (4 ml concentrated HCl per 1 l of isopropanol) containing 10% (v/v) Triton X-100 was added to each well. Formazan crystals were completely solubilized by pipetting up and down, the absorbance at 560 nm of the wells was read by microplate reader (GloMax, Promega, Japan). […] The cytotoxicity of each compound was measured in parallel using the MTT assay. The 50% cytotoxicity concentration (CC50) was defined as the drug concentration that reduces cell viability by 50%.

[2] = MTT cytotoxicity assay, A549 cells; assay type: cell-based, human; details: human, MTT, mean ± 1 SD, read-out: CC50 (50% cytotoxicity concentration)
Method: (§2) MT-2 cells and A549 cells were mixed with HAdV-19, 2× 10^5 cells/mL with 10^4 TCID50/mL and 1× 10^5 cells/mL with 3 × 10^3 TCID50/mL, respectively, in plate wells in the presence or absence of various concentrations of the compounds (MOI: 0.035 for MT-2 cells and 0.021 for A549). The plates were incubated for five days. At the end of the incubation period, CPE was determined using the MTT assay, as described previously.[11],[12] Thus, 25 µl of the MTT solution (7.5 mg/ml) in phosphate-buffered saline (Wako, Japan) was added to each well of the plate. Then, the plate was incubated at 37°C for 2 h. After incubation, 150 µl of medium was removed with care in order not to draw cells. To solubilize the formazan crystals and neutralize the viral infectivity, 100 μl of acidified isopropanol (4 ml concentrated HCl per 1 l of isopropanol) containing 10% (v/v) Triton X-100 was added to each well. Formazan crystals were completely solubilized by pipetting up and down, the absorbance at 560 nm of the wells was read by microplate reader (GloMax, Promega, Japan). The 50% antiviral effective concentration (EC50) was defined as the drug concentration that protects 50% of virus-infected cells from virus-induced cell damage and/or death.[12] The cytotoxicity of each compound was measured in parallel using the MTT assay. The 50% cytotoxicity concentration (CC50) was defined as the drug concentration that reduces cell viability by 50%. Data shown represent mean EC50 and CC50values (±1 standard deviation) derived from the results of two to four independent experiments conducted in duplicate.

A549 cells = test: MTT cytotoxicity assay, A549 cells; assay type: cell-based, human; details: at a concentration of 100 µM
Method: as §2

HAdV-19 [3] = test: MTT-based antiviral assay, HAdV-19-infected MT-2 cells; assay type: cell-based, Human adenovirus type 19; details: for EC50: Human mastadenovirus D, MT2, 120 h, HAdV-19, five days, MTT, mean ± 1 SD, read-out: EC50 (50% antiviral effective concentration)
Method: as §1

[4] = MTT cytotoxicity assay, MT-2 cells; assay type: cell-based, human; details: human, MTT, mean ± 1 SD, read-out: CC50 (50% cytotoxicity concentration)
Method: as §2

MT-2 cells = test: MTT cytotoxicity assay, MT-2 cells; assay type: cell-based, human; details: at a concentration of 100 µM
Method: as §2

| Structure (SMILES) | EC50 (HAdV-19 [1]) [µM] | SI (selectivity index, ratio of CC50 and EC50) (HAdV-19 [1]) | CC50 at 5 days [2] [µM] | tolerance by cells (A549 cells) | SI (selectivity index, ratio of CC50 and EC50) (HAdV-19 [3]) | EC50 (HAdV-19 [3]) [µM] | CC50 at 5 days [4] [µM] | tolerance by cells (MT-2 cells) | antiviral activity against HAdV-19 (in words) (HAdV-19 [3]; MTT assay) |
| --- | --- | --- | --- | --- | --- | --- | --- | --- | --- |
| Nc1nc(O)c2ncn(COC(CO)CO)c2n1 [GCV, ganciclovir] | 54 ± 27 | >1.9 | > 100 | tolerated | >1.7 | 60 ± 7 | > 100 | tolerated |  |
| NC(=O)c1ncn([C@@H]2O[C@H](CO)[C@@H](O)[C@H]2O)n1 [RBV, ribavirin] | > 53 |  | 53 ± 21 |  |  | > 18 | 18 ± 1 |  | little antiviral activity |
| Cc1cn([C@H]2C[C@H](F)[C@@H](CO)O2)c(=O)[nH]c1=O [FdT, 3′-deoxy-3′-fluorothymidine] | 0.03 ± 0.01 |  | 7.6 ± 4.2 |  |  | 1.8 ± 0.2 | 36 ± 5 |  |  |

Continued, in another order:

| EC50 (HAdV-19 [1]) [µM] | Structure (SMILES) | SI (selectivity index, ratio of CC50 and EC50) (HAdV-19 [1]) | CC50 at 5 days [2] [µM] | tolerance by cells (A549 cells) | SI (selectivity index, ratio of CC50 and EC50) (HAdV-19 [3]) | EC50 (HAdV-19 [3]) [µM] | CC50 at 5 days [4] [µM] | tolerance by cells (MT-2 cells) | antiviral activity against HAdV-19 (in words) (HAdV-19 [3]; MTT assay) |
| --- | --- | --- | --- | --- | --- | --- | --- | --- | --- |
| 0.35 ± 0.04 | Nc1ccn([C@H]2CC[C@@H](CO)O2)c(=O)n1 [ddC, 2′,3′-dideoxycytidine] | >286 | > 100 | tolerated | >38 | 2.6 ± 0.4 | > 100 | tolerated |  |
| 4.2 ± 1.1 | Nc1ccn(C[C@@H](CO)OCP(=O)(O)O)c(=O)n1 [CDV, (S)-1–(3-hydroxy-2-phosphonylmethoxypropyl)cytosine] | >24 | > 100 | tolerated | >1.6 | 62 ± 26 | > 100 | tolerated |  |
